{"source": "patent US20230323432A1", "about": "“ASSAY FOR DETECTING POINT MUTATIONS” (Bakotic Pathology Associates, LLC, priority 2022, published 2023)", "key": {"[1]": {"test_system": "T rubrum (ATCC-22402)", "assay": "Terbinafine susceptibility testing of isolates by culture on terbinafine-containing agar (CLSI M38-A3)", "settings": "wild type strain ATCC-22402", "experimental": "(§1) The isolates are re-tested for terbinafine drug resistance by plating the isolates on the sabouraud dextrose agar (SDA)/Potato dextrose agar (PDA) plates containing different concentration of terbinafine. Reagent-grade terbinafine (TRB) were obtained in the powder form (Sigma-Aldrich, Missouri, USA). Drug stock solutions were prepared in dimethyl sulfoxide (DMSO). The dermatophyte isolates were cultured on SDA/PDA for 21-30 days. In vitro testing of the susceptibility to Terbinafine allylamine was performed according to the Clinical and Laboratory Standards Institute (CLSI) document M38-A3 (CLSI, 2018). The drugs were analyzed at the final concentration in the range of 0.002-32 μg/ml for TRB.\n(§2) Wild type strains for T rubrum (ATCC-22402) and T mentagrophytes (ATCC-28146) are obtained from ATCC."}, "[2]": {"test_system": "T mentagrophytes (ATCC-28146)", "assay": "Terbinafine susceptibility testing of isolates by culture on terbinafine-containing agar (CLSI M38-A3)", "settings": "wild type strain ATCC-28146", "experimental": "as §1, §2"}}}
{"smiles": "CN(C/C=C/C#CC(C)(C)C)Cc1cccc2ccccc12", "note": "[terbinafine]", "values": [{"measurement": "terbinafine susceptibility by culture", "setting": "[1]", "value": "susceptible"}, {"measurement": "terbinafine susceptibility by culture", "setting": "[2]", "value": "susceptible"}]}
